The values that follow come from patent publication US10577378B2, “EIF4A-inhibiting compounds and methods related thereto” (eFFECTOR Therapeutics, Inc., priority 2015, dated 2020).

In this assay the test system is MDA-MB-231 human breast cancer cells. Put plainly: Cell proliferation assay (CellTiter-Glo, 72 hours treatment). It is filed as cell-based. Conditions: Homo sapiens; MDA-MB-231 cells, 72 hours at 37° C., CellTiter-Glo; read-out: MDA-MB-231 cell proliferation assay (IC50). Summed up: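 MDA-MB-231 cells seeded at 2,500 cells/well, treated next day with compound or DMSO vehicle for 72 h at 37 °C. Proliferation read by CellTiter-Glo; IC50 from sigmoidal non-linear regression, binned as +++ (<100 nM), ++ (100–1000 nM), + (>1000 nM).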

Some results are limits rather than exact numbers.

Consider `O=S(=O)(Cc1ccccc1)[C@H]1[C@@H](O)[C@@]2(O)c3ncc(Cl)cc3O[C@@]2(c2ccc(Br)cc2)[C@@H]1c1ccccc1` (racemic) [93F, Rac-(5aR,6S,7R,8S,8aS)-7-(benzylsulfonyl)-5a-(4-bromophenyl)-3-chloro-6-phenyl-5a,6,7,8-tetrahydro-8aH-cyclopenta[4,5]furo[3,2-b]pyridine-8,8a-diol], for which the IC50 was more than 1 µM.

`O[C@H]1[C@H](Sc2ccccn2)[C@@H](c2ccccc2)[C@]2(c3ccc(Br)cc3)Oc3cc(Cl)cnc3[C@]12O` (racemic) [160Fb, Rac-(5aR,6S,7R,8R,8aS)-5a-(4-bromophenyl)-3-chloro-6-phenyl-7-(pyridin-2-ylthio)-5a,6,7,8-tetrahydro-8aH-cyclopenta[4,5]furo[3,2-b]pyridine-8,8a-diol]: the IC50 was more than 1 µM.

As for `COc1cncc2c1[C@]1(O)[C@H](O)[C@H](CN3CC4(COC4)C3)[C@@H](c3ccccc3)[C@]1(c1ccc(C#N)cc1)O2` (racemic) [236F, Rac-4-((4bS,5R,6S,7S,7aR)-6-((2-oxa-6-azaspiro[3.3]heptan-6-yl)methyl)-4b,5-dihydroxy-4-methoxy-7-phenyl-4b,5,6,7-tetrahydro-7aH-cyclopenta[4,5]furo[2,3-c]pyridin-7a-yl)benzonitrile], the IC50 lay in the range of 0.1 to 1 µM.

Take `N#Cc1ccc([C@@]23Oc4cc(Cl)cnc4[C@]2(O)[C@@H]2OC[C@@H]2[C@H]3c2ccccc2)cc1` (racemic) [61F, rac-4-((2aS,3S,3aR,8bS,8cR)-6-chloro-8b-hydroxy-3-phenyl-2a,3,8b,8c-tetrahydrooxeto[3″,2″:4′,5′]cyclopenta[1′,2′:4,5]furo[3,2-b]pyridin-3a(2H)-yl)benzonitrile]: the IC50 was more than 1 µM.

On to `COc1cncc2c1[C@]1(O)[C@H](O)[C@H](CN3CCCCC3)[C@@H](c3ccccc3)[C@]1(c1ccc(C#N)cc1)O2` (single isomer, unassigned) [258F], for which the IC50 was less than 0.1 µM.

Turning to `COc1ccc([C@@]23Oc4cc(OC)cnc4[C@]2(O)[C@H](O)[C@H](C(=O)N(C)C)[C@H]3c2ccccc2)cc1` (racemic) [1F, Rac-(5aR,6S,7R,8R,8aS)-8,8a-dihydroxy-3-methoxy-5a-(4-methoxyphenyl)-N,N-dimethyl-6-phenyl-5a,7,8,8a-tetrahydro-6H-cyclopenta[4,5]furo[3,2-b]pyridine-7-carboxamide], the IC50 lay within 0.1 to 1 µM.

Turning to `COc1cncc2c1[C@]1(O)[C@@H](CNCC(F)F)[C@H](CO)[C@@H](c3ccccc3)[C@]1(c1ccc(C#N)cc1)O2` (racemic) [182F, Rac-4-((4bR,5R,6R,7S,7aR)-5-(((2,2-difluoroethyl)amino)methyl)-4b-hydroxy-6-(hydroxyl-methyl)-4-methoxy-7-phenyl-4b,5,6,7-tetrahydro-7aH-cyclopenta[4,5]furo[2,3-c]pyridin-7a-yl)benzonitrile], the IC50 was less than 0.1 µM.

Regarding `O[C@]12c3ncc(Cl)cc3O[C@@]1(c1ccc(Br)cc1)[C@H](c1ccccc1)C[C@@H]2CN1CCOCC1` (racemic) [177F, rac-(5aR,6S,8R,8aR)-5a-(4-bromophenyl)-3-chloro-8-(morpholinomethyl)-6-phenyl-5a,6,7,8-tetrahydro-8aH-cyclopenta[4,5]furo[3,2-b]pyridin-8a-ol], the IC50 fell in the range of 0.1 to 1 µM.

`COc1cncc2c1[C@]1(O)[C@H](O)[C@H](CN3[C@@H]4CCC[C@H]3CC4)[C@@H](c3ccccc3)[C@]1(c1ccc(C#N)cc1)O2` (single isomer, unassigned) [268F]: the IC50 was 0.1 to 1 µM.

`COc1cncc2c1[C@]1(O)[C@H](O)[C@H](C(=O)N(C)Cc3ccnn3C)[C@@H](c3ccccc3)[C@]1(c1ccc(Br)cc1)O2` (racemic) [249F, Rac-(4bS,5R,6R,7S,7aR)-7a-(4-bromophenyl)-4b,5-dihydroxy-4-methoxy-N-methyl-N-((1-methyl-1H-pyrazol-5-yl)methyl)-7-phenyl-4b,6,7,7a-tetrahydro-5H-cyclopenta[4,5]furo[2,3-c]pyridine-6-carboxamide]: the IC50 was less than 0.1 µM.

`COc1cncc2c1[C@]1(O)[C@H](O)[C@H](CNCc3ccccc3)[C@@H](c3ccccc3)[C@]1(c1ccc(C#N)cc1)O2` (racemic) [77F, Rac-4-((4bS,5R,6S,7S,7aR)-6-((benzylamino)methyl)-4b,5-dihydroxy-4-methoxy-7-phenyl-4b,5,6,7-tetrahydro-7aH-cyclopenta[4,5]furo[2,3-c]pyridin-7a-yl)benzonitrile]: the IC50 was less than 0.1 µM.

Take `N#Cc1ccc([C@@]23Oc4cc(Cl)cnc4[C@]2(O)[C@@H](CN)C[C@H]3c2ccccc2)cc1` (racemic) [175F, Rac-4-((5aR,6S,8R,8aR)-8-(aminomethyl)-3-chloro-8a-hydroxy-6-phenyl-6,7,8,8a-tetrahydro-5aH-cyclopenta[4,5]furo[3,2-b]pyridin-5a-yl)benzonitrile]: the IC50 is less than 0.1 µM.

Regarding `COc1ccc2c(n1)O[C@@]1(c3ccc(C#N)cc3)[C@H](c3ccccc3)[C@@H](C(=O)N(C)C)[C@@H](O)[C@@]21O` (racemic) [15F, Rac-(4bS,5R,6R,7S,7aR)-7a-(4-cyanophenyl)-4b,5-dihydroxy-2-methoxy-N,N-dimethyl-7-phenyl-4b,6,7,7a-tetrahydro-5H-cyclopenta[4,5]furo[2,3-b]pyridine-6-carboxamide], the IC50 is more than 1 µM.

For the molecule `COc1cncc2c1[C@]1(O)[C@H](O)[C@H](CN(C)CCO)[C@@H](c3ccccc3)[C@]1(c1ccc(C#N)cc1)O2` (racemic) [75F, rac-4-((4bS,5R,6S,7S,7aR)-4b,5-dihydroxy-6-(((2-hydroxyethyl)(methyl)amino)methyl)-4-methoxy-7-phenyl-4b,5,6,7-tetrahydro-7aH-cyclopenta[4,5]furo[2,3-c]pyridin-7a-yl)benzonitrile], the IC50 was 0.1 to 1 µM.

With `COc1nc(Cl)cc2c1[C@]1(O)[C@H](O)[C@H](CN3CCC(F)(F)CC3)[C@@H](c3ccccc3)[C@]1(c1ccc(C#N)cc1)O2` (racemic) [157Fb, Rac-4-((5aR,6S,7S,8R,8aS)-3-chloro-7-((4,4-difluoropiperidin-1-yl)methyl)-8,8a-dihydroxy-1-methoxy-6-phenyl-6,7,8,8a-tetrahydro-5aH-cyclopenta[4,5]furo[3,2-c]pyridin-5a-yl)benzonitrile], the IC50 was 0.1 to 1 µM.

`COc1nc(Cl)cc2c1[C@]1(O)[C@H](O)[C@H](CNCC(F)F)[C@@H](c3ccccc3)[C@]1(c1ccc(C#N)cc1)O2` (racemic) [196F, Rac-4-((5aR,6S,7S,8R,8aS)-3-chloro-7-(((2,2-difluoroethyl)amino)methyl)-8,8a-dihydroxy-1-methoxy-6-phenyl-6,7,8,8a-tetrahydro-5aH-cyclopenta[4,5]furo[3,2-c]pyridin-5a-yl)benzonitrile]: the IC50 was less than 0.1 µM.

For the molecule `COc1nc(Cl)cc2c1[C@]1(O)[C@H](O)[C@H](CN(C)C)[C@@H](c3ccccc3)[C@]1(c1ccc(Br)cc1)O2` (racemic) [138F, Rac-(5aR,6S,7S,8R,8aS)-5a-(4-bromophenyl)-3-chloro-7-((dimethylamino)methyl)-1-methoxy-6-phenyl-5a,6,7,8-tetrahydro-8aH-cyclopenta[4,5]furo[3,2-c]pyridine-8,8a-diol], the IC50 is less than 0.1 µM.

As to `COc1cncc2c1[C@]1(O)[C@H](O)[C@H](CN3[C@@H]4COC[C@H]3C4)[C@@H](c3ccccc3)[C@]1(c1ccc(C#N)cc1)O2` (racemic) [267F, Rac-4-((4bS,5R,6S,7S,7aR)-6-(((1R,5S)-3-oxa-6-azabicyclo[3.1.1]heptan-6-yl)methyl)-4b,5-dihydroxy-4-methoxy-7-phenyl-4b,5,6,7-tetrahydro-7aH-cyclopenta[4,5]furo[2,3-c]pyridin-7a-yl)benzonitrile], the IC50 is 0.1 to 1 µM.

In the case of `COc1cncc2c1[C@]1(O)[C@H](O)[C@H](C(=O)N3CCOCC3)[C@@H](c3ccccc3)[C@]1(c1ccc(Br)cc1)O2` (racemic) [87F, Rac-((4bS,5R,6R,7S,7aR)-7a-(4-bromophenyl)-4b,5-dihydroxy-4-methoxy-7-phenyl-4b,6,7,7a-tetrahydro-5H-cyclopenta[4,5]furo[2,3-c]pyridin-6-yl)(morpholino)methanone], the IC50 was less than 0.1 µM.

On to `N#Cc1ccc([C@@]23Oc4cc(Cl)cnc4[C@]2(O)[C@H](O)[C@H](c2ncco2)[C@H]3c2ccccc2)cc1` (racemic) [26F, Rac-4-((5aR,6S,7R,8R,8aS)-3-chloro-8,8a-dihydroxy-7-(oxazol-2-yl)-6-phenyl-6,7,8,8a-tetrahydro-5aH-cyclopenta[4,5]furo[3,2-b]pyridin-5a-yl)benzonitrile], for which the IC50 lay within 0.1 to 1 µM.

On to `COc1nc(Cl)cc2c1[C@]1(O)[C@H](O)[C@H](CN(C)C)[C@@H](c3ccccc3)[C@]1(c1ccc(C(F)F)cc1)O2` (racemic) [143F, Rac-(5aR,6S,7S,8R,8aS)-3-chloro-5a-(4-(difluoromethyl)phenyl)-7-((dimethylamino)methyl)-1-methoxy-6-phenyl-5a,6,7,8-tetrahydro-8aH-cyclopenta[4,5]furo[3,2-c]pyridine-8,8a-diol], for which the IC50 is less than 0.1 µM.

In the case of `COc1ccc([C@@]23Oc4cc(OC)ccc4[C@]2(N=[N+]=[N-])[C@H](O)[C@H](C(=O)N(C)C)[C@H]3c2ccccc2)cc1` (racemic) [42F, Rac-(1R,2R,3S,3aR,8bS)-8b-azido-1-hydroxy-6-methoxy-3a-(4-methoxyphenyl)-N,N-dimethyl-3-phenyl-2,3-dihydro-1H-cyclopenta[b]benzofuran-2-carboxamide], the IC50 lay within 0.1 to 1 µM.

`COc1ccc([C@@]23Oc4cc(Cl)cnc4[C@]2(O)[C@H](O)[C@H](C(=O)N(C)C)[C@H]3c2ccccc2)cc1` (single isomer, unassigned) [5F]: the IC50 was 0.1 to 1 µM.

Consider `COc1cncc2c1[C@]1(O)[C@@H](CNCc3ccnn3C)[C@H](CO)[C@@H](c3ccccc3)[C@]1(c1ccc(C#N)cc1)O2` (racemic) [204F, Rac-4-((4bR,5R,6R,7S,7aR)-4b-hydroxy-6-(hydroxymethyl)-4-methoxy-5-((((1-methyl-1H-pyrazol-5-yl)methyl)amino)methyl)-7-phenyl-4b,5,6,7-tetrahydro-7aH-cyclopenta[4,5]furo[2,3-c]pyridin-7a-yl)benzonitrile], for which the IC50 was less than 0.1 µM.
